The record followed here is article PMC9873282, “Design, synthesis and evaluation of quinoline-O-carbamate derivatives as multifunctional agents for the treatment of Alzheimer’s disease” (Journal of Enzyme Inhibition and Medicinal Chemistry, 2023).

Where “and” joins values, the source holds several entries; their conditions need not be identical. Identical values can stand only once. Like-named read-outs stand apart in the source and are kept apart here.

The target in one data set is T1, eqBuChE (Equus caballus, UniProt P81908).
T1 construct: eqBuChE, from equine serum; purchased Sigma Aldrich; host or cells: equine serum (natural source)
T1 sequence (P81908 whole entry): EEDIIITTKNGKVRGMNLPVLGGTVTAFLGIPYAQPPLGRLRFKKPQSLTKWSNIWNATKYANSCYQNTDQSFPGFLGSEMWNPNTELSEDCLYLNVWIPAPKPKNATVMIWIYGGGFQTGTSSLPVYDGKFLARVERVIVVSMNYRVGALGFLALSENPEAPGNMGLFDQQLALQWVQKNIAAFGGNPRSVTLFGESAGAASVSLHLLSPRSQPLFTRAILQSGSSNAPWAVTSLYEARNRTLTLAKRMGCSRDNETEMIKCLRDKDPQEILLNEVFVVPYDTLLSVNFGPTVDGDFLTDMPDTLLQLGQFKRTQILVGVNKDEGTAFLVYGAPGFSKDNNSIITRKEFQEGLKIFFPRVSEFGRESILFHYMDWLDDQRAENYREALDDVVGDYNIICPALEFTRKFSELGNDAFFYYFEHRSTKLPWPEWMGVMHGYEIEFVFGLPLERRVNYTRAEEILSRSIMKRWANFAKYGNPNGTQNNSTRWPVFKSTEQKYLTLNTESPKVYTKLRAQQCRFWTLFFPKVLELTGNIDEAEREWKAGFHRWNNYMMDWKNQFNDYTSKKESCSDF
Description: biochemical. Particulars: for IC50: BuChE from equine serum; for SI = IC50 (AChE)/IC50 (BuChE): eeAChE/eqBuChE. The arrangement: species or system equine. How it is done:
(§1) The inhibitory activities of the synthesised compounds against eeAChE (from electric eel) and eqBuChE (from equine serum) were tested by the modified Ellman’s method[26]^,[27]. […] The determination of AChE and BuChE inhibitory potency of the synthesised compounds were evaluated by Ellman assay, the detailed procedure referred to our previous work[26]^,[27].

The next data set concerns the target T2, hAChE (Homo sapiens, UniProt P22303).
T2 construct: hAChE, from human erythrocytes AChE; purchased Sigma Aldrich; host or cells: human erythrocytes (natural source)
Description: biochemical. How it is done: (§2) Acetylcholinesterase (eeAChE, from the electric eel; hAChE, from human erythrocytes AChE), butyrylcholinesterase (eqBuChE, from equine serum; hBuChE, human serum BuChE), 5,5′-dithiobis-2-nitrobenzoic acid (Ellman’s reagent, DTNB), acetylthiocholine chloride (ATC), and butyrylthiocholine chloride (BTC) were purchased form Sigma Aldrich. The determination of AChE and BuChE inhibitory potency of the synthesised compounds were evaluated by Ellman assay, the detailed procedure referred to our previous work[26]^,[27].

For a further data set, the target named is T3, hBuChE (Homo sapiens, UniProt P06276).
T3 construct: hBuChE, human serum BuChE; purchased Sigma Aldrich; host or cells: human serum (natural source)
T3 sequence (P06276 29-602): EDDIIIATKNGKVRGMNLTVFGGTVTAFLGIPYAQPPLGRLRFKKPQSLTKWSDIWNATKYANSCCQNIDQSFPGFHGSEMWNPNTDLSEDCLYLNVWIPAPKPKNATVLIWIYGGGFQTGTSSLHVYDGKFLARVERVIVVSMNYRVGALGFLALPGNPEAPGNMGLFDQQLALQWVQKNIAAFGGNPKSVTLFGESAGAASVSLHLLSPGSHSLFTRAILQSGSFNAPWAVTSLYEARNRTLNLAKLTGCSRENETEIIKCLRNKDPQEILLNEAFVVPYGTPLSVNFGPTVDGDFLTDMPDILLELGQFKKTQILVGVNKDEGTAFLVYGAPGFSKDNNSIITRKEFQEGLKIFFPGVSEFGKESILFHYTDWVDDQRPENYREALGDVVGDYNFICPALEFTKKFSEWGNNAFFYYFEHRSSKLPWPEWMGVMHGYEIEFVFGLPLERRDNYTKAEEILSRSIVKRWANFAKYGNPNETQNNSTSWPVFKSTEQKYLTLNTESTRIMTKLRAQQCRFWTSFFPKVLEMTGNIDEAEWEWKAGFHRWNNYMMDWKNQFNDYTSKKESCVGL
Description: biochemical. As to conditions: for IC50: from human serum; for SI = IC50 (AChE)/IC50 (BuChE): hAChE/hBuChE. How it is done:
as §2

For a further data set, the target named is T4, eeAChE (Electrophorus electricus, UniProt O42275).
T4 construct: eeAChE, from the electric eel; purchased Sigma Aldrich; host or cells: electric eel (natural source)
T4 sequence (O42275 24-633): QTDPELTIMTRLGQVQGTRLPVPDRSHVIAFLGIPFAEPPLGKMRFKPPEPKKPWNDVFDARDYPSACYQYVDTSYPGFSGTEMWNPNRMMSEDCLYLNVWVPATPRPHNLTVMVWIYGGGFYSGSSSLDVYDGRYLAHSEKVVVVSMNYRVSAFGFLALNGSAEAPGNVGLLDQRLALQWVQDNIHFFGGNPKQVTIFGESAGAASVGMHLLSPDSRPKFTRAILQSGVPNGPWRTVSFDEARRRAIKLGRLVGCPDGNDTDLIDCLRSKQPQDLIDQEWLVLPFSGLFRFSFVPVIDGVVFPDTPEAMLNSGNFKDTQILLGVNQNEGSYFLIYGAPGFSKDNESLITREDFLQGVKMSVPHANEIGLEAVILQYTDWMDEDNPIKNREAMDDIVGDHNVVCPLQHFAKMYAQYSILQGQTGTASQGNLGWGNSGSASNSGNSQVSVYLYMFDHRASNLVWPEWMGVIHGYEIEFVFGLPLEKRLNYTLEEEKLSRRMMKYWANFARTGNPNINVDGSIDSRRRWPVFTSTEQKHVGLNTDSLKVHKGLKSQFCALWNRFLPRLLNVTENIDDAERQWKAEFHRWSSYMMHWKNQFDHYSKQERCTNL
The data set can be described thus: biochemical. Also noted: species or system electric eel. How it is done:
as §1

Another data set deals with IL-6. Description: IL-6 production in LPS-stimulated BV-2 cells (ELISA). In kind it is cell-based. As to conditions: 1 µM and 2 µM; 1 µg/mL LPS 24 h. On the procedure: (§3) Firstly, the cytotoxicity of compounds 3a, 3c, 3e, 3f, 3k, 3m and 3n were tested using CCK8 assay.
(§4) BV-2 cells (2 × 10^5 cells/well) were seeded in a 24-well cell culture plates. The cells were divided into blank control group, model group (1 µg/mL LPS), LPS + 2 µM compound group, LPS + 1 µM compound group. Each drug group was pre-treated with corresponding concentration of drug solution for 8 h. After 8 h, the culture medium was aspirated out. Except for the blank control group, which was added with DMEM medium, the other groups were stimulated with 1 µg/mL LPS for 24 h. Then cell supernatant was aspirated and centrifuged at 3000 rpm for 3 min. The content of NO in cell culture supernatant was determined by Griess method, and the levels of cytokines IL-6 and IL-1β in cell culture supernatant were determined by IL-6 ELISA kit and IL-1β ELISA kit, respectively.
In general terms: In an ELISA, binding on a coated surface is turned into a signal by an enzyme label.

A further data set deals with PC12 cells. Description: Cytotoxicity on PC12 cells. Particulars: at concentration below 40 µM. Type of data set: cell-based. How it is done:
(§5) The neuroprotective effect of compounds 3a, 3c, 3e, 3f, 3k, 3m, and 3n on Aβ25–35-induced PC12 cells injury were evaluated using CCK-8 assay. […] Furthermore, as shown in Figure 12(B), when PC12 cells were exposed to 25 µM Aβ25-35, the cell viability sharply declined to 57.3% (p < 0.01) compared with untreated group.
(§6) The PC12 cells during the logarithmic growth phase were digested and centrifuged with pancreatic enzyme solution, the cells were resuspended by adding the prepared media solution, and piped evenly with a pipette to seed in a 96-well cell culture plate (cell concentration adjusted to 2.0 × 10^4 cell·mL^−1). Each well was added 100 µL complete medium was added to each well and incubated at 37 °C and 5% CO2 for 24 h.

The next data set has as its system NO. The data set can be described thus: NO release in LPS-stimulated BV-2 cells (Griess method). As to conditions: 1 µg/mL LPS 24 h. Type of data set: cell-based. How it is done:
as §3, §4
On the technique in general: The Griess reaction detects nitrite, a stable product of nitric oxide.

The next data set relates to BV-2 cells. Description: Cytotoxicity on BV-2 cells (CCK8 assay). Type of data set: cell-based. Particulars: compounds at 2 µM. On the procedure:
as §3
BV-2 cells were cultured in DMEM containing 10% foetal bovine serum, 100 U/mL penicillin, 100 U/mL streptomycin, and 1% nonessential amino acid at 37 °C with 5% CO2.
BV-2 cells in logarithmic growth stage were digested and centrifuged, and then resuspended in DMEM medium containing 1% penicillin-streptomycin and 10% foetal bovine serum. The cells was adjusted to 1.2 × 10^4 cells/well, and then seeded evenly in 96-well cell culture plates. The cells were incubated for 36 h at 37 °C with 5% CO2. After incubation, the cells were added to different concentrations (10 and 2 µM) of tested compounds, and incubated for 24 h at 37 °C with 5% CO2. Then, 10 µL CCK-8 solution was added to each well, and incubated for another 1 h at 37 °C with 5% CO2. The OD values were tested at […]. The cell viability (%) = {(ODdrug−ODblank)}/{(ODcontrol−ODblank)} × 100%.
On the technique in general: Tetrazolium dyes change colour on reduction, which living cells bring about.

Another data set relates to IL-1β. Description: IL-1β production in LPS-stimulated BV-2 cells (ELISA). Type of data set: cell-based. Particulars: 1 µg/mL LPS 24 h. On the procedure:
as §3, §4

The test system of data set [1] is Aβ25-35-induced PC12 cells injury. The data set can be described thus: Neuroprotective effect on Aβ25-35-induced PC12 cells injury (CCK-8). Type of data set: cell-based. As to conditions: 25 µM Aβ25-35; model cell viability 57.3%. On the procedure: as §5
• Preparation of Aβ25-35 aggregation. Aβ25-35 was purchased from sigma. 1 mg Aβ25-35 was dissolved in 943 µL of sterilised deionised water to obtain 1 mM stock solution, aliquoted, –20 °C preservation. Removing the appropriate volume in a 48-well plate and incubated in a 37 °C incubator for two days to allow its ageing to accumulate and produce neurotoxicity. After aggregation was completed, the solution was diluted with PBS to get 25 µM solution of Aβ25-35 aggregation. • Neuroprotective effects of compounds on Aβ25-35-induced PC12 cells injury
as §6
After incubation for 24 h, PC12 cells were divided into blank group, control group, Aβ25-35 model group and tested compounds group (5, 10, 20 µM). Then the original medium was discarded, and 100 µL new complete medium were added to PC12 cells, and the tested compounds group was added to 100 µL complete medium containing different concentrations (5, 10, and 20 µM) of tested compounds, incubated for 2 h at 37 °C, 5% CO2 conditions. After incubation for 2 h, 10 µL Aβ25-35 solution was added to the tested compounds groups and model group (the final concentration of Aβ25-35 was 25 µM), and incubated for 24 h at 37 °C, 5% CO2 conditions, 10 µL CCK-8 was added to each well and further incubated for 1 h at 37 °C and 5% CO2. Finally, the OD value was measured at 450 nm using a microplate reader, and each concentration set three wells. The cell survival rate (%) was determined according to the following formula: cell viability (%) = {(ODdrug−ODblank)}/{(ODcontrol−ODblank)}.

[2] abbreviates: from human erythrocytes, read-out: IC50 ± SD hAChE.
Where [3] appears, read: AChE from electric eel, read-out: IC50 ± SD eeAChE.

T2 sequence (P22303 32-617 isoform P22303-2 limits assumed): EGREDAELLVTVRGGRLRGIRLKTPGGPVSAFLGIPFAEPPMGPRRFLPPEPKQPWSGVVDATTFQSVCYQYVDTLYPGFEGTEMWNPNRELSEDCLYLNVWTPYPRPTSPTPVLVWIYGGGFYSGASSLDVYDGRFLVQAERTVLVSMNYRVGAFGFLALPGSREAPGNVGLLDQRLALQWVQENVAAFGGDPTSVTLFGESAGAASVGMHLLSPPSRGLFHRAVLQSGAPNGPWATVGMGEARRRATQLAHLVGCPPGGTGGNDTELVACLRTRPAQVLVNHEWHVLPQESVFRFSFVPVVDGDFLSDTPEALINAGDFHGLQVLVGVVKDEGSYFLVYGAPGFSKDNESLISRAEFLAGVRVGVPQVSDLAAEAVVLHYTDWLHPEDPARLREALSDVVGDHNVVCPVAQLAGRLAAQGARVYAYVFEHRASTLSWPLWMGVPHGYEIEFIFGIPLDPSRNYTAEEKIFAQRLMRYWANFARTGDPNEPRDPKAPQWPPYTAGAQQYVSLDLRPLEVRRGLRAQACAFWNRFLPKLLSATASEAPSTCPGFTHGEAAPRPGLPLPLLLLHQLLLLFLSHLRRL

As a reminder, the IC50 is the point on the concentration scale where inhibition reaches its midpoint. Regarding `CCN(CC)C(=O)Oc1ccnc2ccccc12` [Compound 3b, Quinolin-4-yl diethylcarbamate], the IC50 is 1.06 µM and 1.1 µM on eqBuChE (read-out: IC50 ± SD eqBuChE); 30.2 ± 0.61 µM on hAChE (setting [2]); 5.39 µM and 5.4 µM on hBuChE (read-out: IC50 ± SD hBuChE); 12.7 ± 0.13 µM at eeAChE (setting [3]). For the same compound, the “SI = IC50 (AChE)/IC50 (BuChE)” value on eqBuChE is listed as 11.5; at hBuChE, 5.6.

`O=C(Oc1ccnc2ccccc12)N1CCOCC1` [Compound 3d, Quinolin-4-yl morpholine-4-carboxylate]: the IC50 on eqBuChE (read-out: IC50 ± SD eqBuChE) is 0.87 ± 0.05 µM; at hAChE (setting [2]) it was 26.9 ± 0.74 µM; on hBuChE (read-out: IC50 ± SD hBuChE), 9.46 µM and 9.5 µM; on eeAChE (setting [3]), 15.7 ± 0.27 µM. For the same compound, the “SI = IC50 (AChE)/IC50 (BuChE)” value at eqBuChE amounted to 18.0; at hBuChE it was 2.8.

`CN(C)C(=O)Oc1cccc2ncccc12` [Compound 3e, Quinolin-5-yl dimethylcarbamate]: in the data set on IL-6, the “levels of IL-6 compared with model group” value is recorded as “significantly decreased”. Also, the IC50 against eqBuChE (IC50 ± SD eqBuChE) stood at 0.94 ± 0.07 µM; against hAChE it was 10.4 ± 0.21 µM; on hBuChE (IC50 ± SD hBuChE), 3.7 ± 0.05 µM; on eeAChE, 4.5 ± 0.04 µM. Further, the entries for the “SI = IC50 (AChE)/IC50 (BuChE)” value at eqBuChE and at hBuChE were 4.8 and 2.8, respectively. Also, the “cytotoxicity on PC12 cells” value in the data set with PC12 cells is recorded as “did not show any cytotoxicity”. Besides, in the data set on NO, the “release volume of NO” value is “significantly decreased”. In addition, in the data set on BV-2 cells, the “cell viability of BV-2 cells” value was “did not show obvious change”. The “levels of IL-1β compared with model group” value in the data set with IL-1β is on record as “significantly decreased”. In addition, the “neuroprotective effect on Aβ25-35-induced PC12 cells injury” value in data set [1] was “remarkable neuroprotective effects at 5 and 10 µM”.
